According to US4605642A, “CRF antagonists” (The Salk Institute for Biological Studies, priority 1984, dated 1986):
Square brackets hold non-standard residues; d marks the D form. Peptide text beside a SMILES is read from it. Nle = CCCC[C@H](N)C(=O)O

Assays:
[1] = system: secretion of ACTH by cultured rat pituitary cells; experiment: Blocking of oCRF-stimulated ACTH secretion by cultured rat pituitary cells; assay type: cell-based; conditions: general procedure set forth in Example III
Experimental: (§1) The effectiveness of synthetic CRF antagonists to block the secretion of ACTH and β-endorphin by cultured rat pituitary cells is measured using the procedure as generally set forth in Vale et al., Endocrinology, 91, 562 (1972). In vivo testing is carried out using the general procedure set forth in C. Rivier et al., Science, 218, 377 (1982).

[2] = system: secretion of β-endorphin by cultured rat pituitary cells; experiment: Blocking of β-endorphin (β-END-LI) secretion by cultured rat pituitary cells; assay type: cell-based; conditions: general procedure set forth in Example III
Experimental: as §1

SMILES	inhibition of the secretion of ACTH (in words) [1]	inhibition of the secretion of β-END-LI (in words) [2]
CCCC[C@H](NC(=O)[C@@H](NC(=O)[C@H](CCC(=O)O)NC(=O)[C@H](CC(C)C)NC(=O)[C@H](CC(C)C)NC(=O)[C@H](CCCCN)NC(=O)[C@H](CCCNC(=N)N)NC(=O)[C@H](CC(N)=O)NC(=O)[C@H](CO)NC(=O)[C@H](Cc1c[nH]cn1)NC(=O)[C@H](C)NC(=O)[C@H](CCC(N)=O)NC(=O)[C@H](CCC(N)=O)NC(=O)[C@H](C)NC(=O)[C@H](CC(C)C)NC(=O)[C@H](CCC(N)=O)NC(=O)[C@H](CCC(=O)O)NC(=O)[C@H](C)NC(=O)[C@H](CCCNC(=N)N)NC(=O)[C@H](C)NC(=O)[C@H](C)NC(=O)[C@H](CCC(=O)O)NC(=O)[C@H](CC(C)C)NC(=O)[C@@H](NC(=O)[C@H](CCC(=O)O)NC(=O)[C@H](CCCNC(=N)N)NC(=O)[C@H](CC(C)C)NC(=O)[C@H](CC(C)C)NC(=O)[C@H](Cc1c[nH]cn1)NC(=O)[C@H](Cc1ccccc1)NC(=O)[C@@H](NC(=O)[C@H](CC(C)C)NC(=O)[C@@H](N)CC(=O)O)[C@@H](C)O)C(C)C)[C@@H](C)CC)C(N)=O [[Ala^21, Leu^38, Nle^41]-hCRF(9-41)] (H-DLTFHLLREVLEAARAEQLAQQAHSNRKLLEI[Nle]-NH2)	inhibits the secretion	inhibits the secretion
CCCC[C@H](N)C(=O)N[C@@H](CC(=O)O)C(=O)N[C@@H](CC(C)C)C(=O)N[C@@H](CO)C(=O)N[C@@H](Cc1ccccc1)C(=O)N[C@@H](Cc1c[nH]cn1)C(=O)N[C@@H](CC(C)C)C(=O)N[C@@H](CC(C)C)C(=O)N[C@@H](CCCNC(=N)N)C(=O)N[C@@H](CCC(=O)O)C(=O)N[C@H](C(=O)N[C@@H](CC(C)C)C(=O)N[C@@H](CCC(=O)O)C(=O)N[C@@H](CCSC)C(=O)N[C@@H](C)C(=O)N[C@@H](CCCNC(=N)N)C(=O)N[C@@H](C)C(=O)N[C@@H](CCC(=O)O)C(=O)N[C@@H](CCC(N)=O)C(=O)N[C@@H](CC(C)C)C(=O)N[C@@H](C)C(=O)N[C@@H](CCC(N)=O)C(=O)N[C@@H](CCC(N)=O)C(=O)N[C@@H](C)C(=O)N[C@@H](Cc1c[nH]cn1)C(=O)N[C@@H](CC(C)C)C(=O)N[C@@H](CC(N)=O)C(=O)N[C@@H](CCCNC(=N)N)C(=O)N[C@@H](CCCCN)C(=O)N[C@@H](CC(C)C)C(=O)N[C@@H](CCSC)C(=O)N[C@@H](CCC(=O)O)C(=O)N[C@H](C(=O)N[C@H](C(N)=O)[C@@H](C)CC)[C@@H](C)CC)C(C)C [[Nle^8, Ser^11, Leu^33]-hCRF(8-41)] (H-[Nle]DLSFHLLREVLEMARAEQLAQQAHLNRKLMEII-NH2)	inhibits the secretion	inhibits the secretion
CCCC[C@H](NC(=O)[C@@H](NC(=O)[C@@H](N)CC(C)C)[C@@H](C)O)C(=O)N[C@@H](Cc1c[nH]cn1)C(=O)N[C@@H](CC(C)C)C(=O)N[C@@H](CC(C)C)C(=O)N[C@@H](CCCNC(=N)N)C(=O)N[C@@H](CCC(=O)O)C(=O)N[C@H](C(=O)N[C@@H](CC(C)C)C(=O)N[C@@H](CCC(=O)O)C(=O)N[C@@H](CCSC)C(=O)N[C@@H](C)C(=O)N[C@@H](CCCNC(=N)N)C(=O)N[C@@H](C)C(=O)N[C@@H](CCC(=O)O)C(=O)N[C@@H](CCC(N)=O)C(=O)N[C@@H](CC(C)C)C(=O)N[C@@H](C)C(=O)N[C@@H](CCC(N)=O)C(=O)N[C@@H](CCC(N)=O)C(=O)N[C@@H](C)C(=O)N[C@@H](Cc1c[nH]cn1)C(=O)N[C@@H](CO)C(=O)N[C@@H](CC(N)=O)C(=O)N[C@@H](CCCNC(=N)N)C(=O)N[C@@H](CCCCN)C(=O)N[C@@H](CC(C)C)C(=O)N[C@@H](CCSC)C(=O)N[C@@H](CCC(=O)O)C(=O)N[C@H](C(=O)N[C@H](C(N)=O)[C@@H](C)CC)[C@@H](C)CC)C(C)C [[Nle^12]-hCRF(10-41)] (H-LT[Nle]HLLREVLEMARAEQLAQQAHSNRKLMEII-NH2)	inhibits the secretion	inhibits the secretion
CCCC[C@H](NC(=O)[C@H](CCC(=O)O)NC(=O)[C@H](CC(C)C)NC(=O)[C@H](CCCC)NC(=O)[C@H](CCC(=O)O)NC(=O)[C@H](CCCNC(=N)N)NC(=O)[C@H](CC(C)C)NC(=O)[C@H](CC(C)C)NC(=O)[C@H](Cc1c[nH]cn1)NC(=O)[C@H](Cc1ccccc1)NC(=O)[C@@H](NC(=O)[C@H](CC(C)C)NC(=O)[C@H](CC(=O)O)NC(=O)[C@@H](N)CC(C)C)[C@@H](C)O)C(=O)N[C@@H](C)C(=O)N[C@@H](CCCCN)C(=O)N[C@@H](C)C(=O)N[C@@H](CCC(=O)O)C(=O)N[C@@H](CCC(N)=O)C(=O)N[C@@H](CCC(=O)O)C(=O)N[C@@H](C)C(=O)N[C@@H](CCC(=O)O)C(=O)N[C@@H](CCC(N)=O)C(=O)N[C@@H](C)C(=O)N[C@@H](C)C(=O)N[C@@H](CC(C)C)C(=O)N[C@@H](CC(N)=O)C(=O)N[C@@H](CCCNC(=N)N)C(=O)N[C@@H](CC(C)C)C(=O)N[C@@H](CC(C)C)C(=O)N[C@@H](CC(C)C)C(=O)N[C@@H](CCC(=O)O)C(=O)N[C@@H](CCC(=O)O)C(=O)N[C@@H](C)C(N)=O [[Nle^18,21]-AHC(8-41)] (H-LDLTFHLLRE[Nle]LE[Nle]AKAEQEAEQAALNRLLLEEA-NH2)	inhibits the secretion	inhibits the secretion
CCCC[C@H](NC(=O)[C@H](CCC(=O)O)NC(=O)[C@H](CC(C)C)NC(=O)[C@H](CCCC)NC(=O)[C@H](CCC(=O)O)NC(=O)[C@H](CCCNC(=N)N)NC(=O)[C@H](CC(C)C)NC(=O)[C@H](CC(C)C)NC(=O)[C@H](Cc1c[nH]cn1)NC(=O)[C@H](Cc1ccccc1)NC(=O)[C@@H](NC(=O)[C@H](CC(C)C)NC(=O)[C@@H](N)CC(=O)O)[C@@H](C)O)C(=O)N[C@@H](C)C(=O)N[C@@H](CCCCN)C(=O)N[C@@H](C)C(=O)N[C@@H](CCC(=O)O)C(=O)N[C@@H](CCC(N)=O)C(=O)N[C@@H](CCC(=O)O)C(=O)N[C@@H](C)C(=O)N[C@@H](CCC(=O)O)C(=O)N[C@@H](CCC(N)=O)C(=O)N[C@@H](C)C(=O)N[C@@H](C)C(=O)N[C@@H](CC(C)C)C(=O)N[C@@H](CC(N)=O)C(=O)N[C@@H](CCCNC(=N)N)C(=O)N[C@@H](CC(C)C)C(=O)N[C@@H](CC(C)C)C(=O)N[C@@H](CC(C)C)C(=O)N[C@@H](CCC(=O)O)C(=O)N[C@@H](CCC(=O)O)C(=O)N[C@@H](C)C(N)=O [[Nle^18,21]-AHC(9-41)] (H-DLTFHLLRE[Nle]LE[Nle]AKAEQEAEQAALNRLLLEEA-NH2)	inhibits the secretion	inhibits the secretion
CCCC[C@H](NC(=O)[C@H](CCC(=O)O)NC(=O)[C@H](CC(C)C)NC(=O)[C@H](CCCC)NC(=O)[C@H](CCC(=O)O)NC(=O)[C@H](CCCNC(=N)N)NC(=O)[C@H](CC(C)C)NC(=O)[C@H](CC(C)C)NC(=O)[C@H](Cc1c[nH]cn1)NC(=O)[C@H](Cc1ccccc1)NC(=O)[C@@H](NC(=O)[C@@H](N)CC(C)C)[C@@H](C)O)C(=O)N[C@@H](C)C(=O)N[C@@H](CCCCN)C(=O)N[C@@H](C)C(=O)N[C@@H](CCC(=O)O)C(=O)N[C@@H](CCC(N)=O)C(=O)N[C@@H](CCC(=O)O)C(=O)N[C@@H](C)C(=O)N[C@@H](CCC(=O)O)C(=O)N[C@@H](CCC(N)=O)C(=O)N[C@@H](C)C(=O)N[C@@H](C)C(=O)N[C@@H](CC(C)C)C(=O)N[C@@H](CC(N)=O)C(=O)N[C@@H](CCCNC(=N)N)C(=O)N[C@@H](CC(C)C)C(=O)N[C@@H](CC(C)C)C(=O)N[C@@H](CC(C)C)C(=O)N[C@@H](CCC(=O)O)C(=O)N[C@@H](CCC(=O)O)C(=O)N[C@@H](C)C(N)=O [[Nle^18,21]-AHC(10-41)] (H-LTFHLLRE[Nle]LE[Nle]AKAEQEAEQAALNRLLLEEA-NH2)	inhibits the secretion	inhibits the secretion
